Measurements taken from article PMC10402266, “Reaction hijacking inhibition of Plasmodium falciparum asparagine tRNA synthetase” (Research Square, 2023).

Tests used:
Type in all cases: biochemical
[1] = molecular target: T1, PfAsnRS (Plasmodium falciparum cytoplasmic asparaginyl tRNA synthetase) (Plasmodium falciparum, UniProt O96198); assay: ATP consumption assay of recombinant enzyme
T1 construct: gene PF3D7_0211800; recombinant wildtype PfAsnRS, His-tag removed

[2] = molecular target: T1, PfAsnRS (Plasmodium falciparum cytoplasmic asparaginyl tRNA synthetase); assay: ATP consumption assay of recombinant enzyme without tRNA, synthetic adduct
[3] = molecular target: T2, PfAsnRS (Plasmodium falciparum cytoplasmic asparaginyl tRNA synthetase) (Plasmodium falciparum, UniProt O96198, R487S); assay: ATP consumption assay of recombinant mutant enzyme with tRNA
T2 construct: gene PF3D7_0211800; recombinant PfAsnRSR487S
T2 sequence (O96198 1-610 R487S): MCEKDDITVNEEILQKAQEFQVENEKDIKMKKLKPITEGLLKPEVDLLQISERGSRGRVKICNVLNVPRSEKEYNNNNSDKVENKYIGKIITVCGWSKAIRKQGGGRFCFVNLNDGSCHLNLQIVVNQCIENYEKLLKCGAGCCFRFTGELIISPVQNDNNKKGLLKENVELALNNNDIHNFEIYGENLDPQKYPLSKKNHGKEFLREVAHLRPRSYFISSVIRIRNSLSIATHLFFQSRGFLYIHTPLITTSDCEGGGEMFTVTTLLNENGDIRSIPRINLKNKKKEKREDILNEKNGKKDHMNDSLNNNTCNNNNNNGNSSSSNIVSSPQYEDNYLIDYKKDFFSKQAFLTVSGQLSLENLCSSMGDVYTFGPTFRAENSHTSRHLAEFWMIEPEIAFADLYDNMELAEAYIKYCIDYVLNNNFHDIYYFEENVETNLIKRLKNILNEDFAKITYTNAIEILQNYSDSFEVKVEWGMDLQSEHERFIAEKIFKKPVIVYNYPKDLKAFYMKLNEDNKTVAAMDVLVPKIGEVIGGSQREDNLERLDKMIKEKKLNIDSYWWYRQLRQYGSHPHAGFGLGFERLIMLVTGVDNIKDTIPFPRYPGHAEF

[4] = molecular target: T1, PfAsnRS (Plasmodium falciparum cytoplasmic asparaginyl tRNA synthetase); assay: ATP consumption assay of recombinant enzyme with tRNA; Asn adduct found by LC-MS

With `Nc1ncnc2c1ncn2[C@@H]1O[C@H](COS(N)(=O)=O)[C@@H](O)[C@H]1O` [AMS, adenosine 5’-sulfamate] the IC50 [1] was 0.0037 µM.
`NC(=O)C[C@H](N)C(=O)NS(=O)(=O)c1cccc(-c2cc3ncnc(N)c3s2)c1` [Asn-OSM-S-106] was tested, and the IC50 [2] was 2.6 / 3.3 μM.
Work on `Nc1ncnc2cc(-c3cccc(S(N)(=O)=O)c3)sc12` [OSM-S-106] yielded an IC50 [3] of 26.3 µM and an IC50 [4] of 3.6 µM.
